Measurements as given in article PMC3895407 (Journal of medicinal chemistry, 2013).
Marks after values point to notes of the source that are not given here.

Tests used:
[1] = in vitro; settings: PAMPA, pH 7.4
[2] = tested on: WEEV replicon; assay type: cell-based, western equine encephalitis virus
[3] = in vitro
[4] = tested on: western equine encephalitis virus (WEEV); settings: cited from earlier work
[5] = tested on: Fort Morgan virus (FMV); settings: 25 µM
[6] = tested on: cell viability (cellular reduction of MTT)
[7] = tested on: Fort Morgan virus (FMV); assay type: cell-based
[8] = Table 3; BBB lipid mixture, pH 7.4
[9] = relative to lead compound 3
[10] = tested on: western equine encephalitis virus (WEEV); settings: 25 µM

Question: What does the source list for `CN(CCc1ccncc1)C(=O)C1CCN(C(=O)c2cc3ccccc3n2Cc2ccc(Cl)cc2)CC1` [27m, 1-(1-(4-Chlorobenzyl)-1H-indole-2-carbonyl)-N-methyl-N-(2-(pyridin-4-yl)ethyl)piperidine-4-carboxamide]?
Answer: Papp [1]: 61.7 ×10⁻⁶ cm/s; Fold diminished potency in WEEV replicon assay [2]: 3 fold

Question: With `CN(C)C(=O)C1CCN(C(=O)c2cc3ccccc3n2Cc2ccc(Cl)cc2)CC1` [27v, 1-(1-(4-Chlorobenzyl)-1H-indole-2-carbonyl)-N,N-dimethylpiperidine-4-carboxamide] as the molecule, how does the Papp [1] read?
Answer: Its Papp is 64.6 ×10⁻⁶ cm/s.

Question: What about the CC50 [3] of the same molecule?
Answer: The CC50 was > 100 µM.

Question: Which “WEEV Titer” value [4] does the source give for `C[C@@H](NC(=O)C1CCN(C(=O)c2cc3ccccc3n2Cc2ccc(Cl)cc2)CC1)c1ccccc1` [compound 3] here?
Answer: The value was 8.8 ± 1.0* x10^6 pfu/mL.

Question: What about the Papp [1] of the same molecule?
Answer: The Papp was 0.302 ×10⁻⁶ cm/s.

Question: What about the “FMV Viability (% uninfected control)” value [5] of the same molecule?
Answer: The value was 47.4 ± 8.0 % uninfected control.

Question: And the CC50 [3]?
Answer: Its CC50 is > 100 µM.

Question: For `CC(=O)n1c(C(=O)N2CCC(C(=O)N(C)Cc3ccccc3)CC2)cc2ccccc21` [28e, 1-(1-Acetyl-1H-indole-2-carbonyl)-N-benzyl-N-methylpiperidine-4-carboxamide], which Papp [1] is on record?
Answer: Its Papp is 9.77 ×10⁻⁶ cm/s.

Question: And the CC50 [3]?
Answer: Its CC50 is > 50 µM.

Question: For `O=C(NCCc1ccncc1)C1CCN(C(=O)c2nccn2Cc2ccc(Cl)cc2)CC1` [29b, 1-(1-(4-Chlorobenzyl)-1H-imidazole-2-carbonyl)-N-(2-(pyridin-4-yl)ethyl)piperidine-4-carboxamide], which Papp [1] is on record?
Answer: The Papp was 8.71 ×10⁻⁶ cm/s.

Question: And the CC50 [3]?
Answer: Its CC50 is > 50 µM.

Question: Which Papp [1] does the source give for `O=C(NCCc1ccncc1)C1CCN(C(=O)c2cc3ccncc3n2Cc2ccc(Cl)cc2)CC1` [29j, 1-(1-(4-Chlorobenzyl)-1H-pyrrolo[2,3-c]pyridine-2-carbonyl)-N-(2-(pyridin-4-yl)ethyl)piperidine-4-carboxamide] here?
Answer: Its Papp is 3.02 ×10⁻⁶ cm/s.

Question: For “1-(1-(4-Chlorobenzyl)-1H-indole-2-carbonyl)-N-(2-methyl-2-(pyridin-4-yl)propyl)piperidine-4-carboxamide [27l]”, which CC50 [6] is on record?
Answer: Its CC50 is 43.6 µM.

Question: And the IC50 ([2]; read-out: IC50 (inhibition of luciferase expression in WEEV replicon assay))?
Answer: Its IC50 is 19.3 ± 21 µM.

Question: What does the source list for `O=C(NCCc1ccncc1)C1CCN(C(=O)c2cccn2Cc2ccc(Cl)cc2)CC1` [29a, 1-(1-(4-Chlorobenzyl)-1H-pyrrole-2-carbonyl)-N-(2-(pyridin-4-yl)ethyl)piperidine-4-carboxamide]?
Answer: Papp [1]: 9.77 ×10⁻⁶ cm/s; FMV Viability (% uninfected control) [5]: 63.0 ± 5.9 % uninfected control; CC50 [3]: > 100 µM

Question: For `COCCn1c(C(=O)N2CCC(C(=O)N(C)Cc3ccccc3)CC2)cc2ccccc21` [28f, N-Benzyl-1-(1-(2-methoxyethyl)-1H-indole-2-carbonyl)-N-methylpiperidine-4-carboxamide], which Papp [1] is on record?
Answer: Its Papp is 40.7 ×10⁻⁶ cm/s.

Question: And the CC50 [3]?
Answer: Its CC50 is > 50 µM.

Question: With `Cn1cnc(CNC(=O)C2CCN(C(=O)c3cc4ccccc4n3Cc3ccc(Cl)cc3)CC2)c1` [27f, 1-(1-(4-Chlorobenzyl)-1H-indole-2-carbonyl)-N-((1-methyl-1H-imidazol-4-yl)methyl)piperidine-4-carboxamide] as the molecule, how does the CC50 [3] read?
Answer: Its CC50 is > 50 µM.

Question: With `CN(Cc1ccccc1)C(=O)C1CCN(C(=O)c2cc3ccccc3n2Cc2ccc([N+](=O)[O-])cc2)CC1` [28b, N-Benzyl-N-methyl-1-(1-(4-nitrobenzyl)-1H-indole-2-carbonyl)piperidine-4-carboxamide] as the molecule, how does the CC50 [3] read?
Answer: The CC50 was > 100 µM.

Question: With `O=C(NCCc1ccncc1)C1CCN(C(=O)NCCc2ccc(Cl)cc2)CC1` [29d, N1-(4-Chlorophenethyl)-N4-(2-(pyridin-4-yl)ethyl)piperidine-1,4-dicarboxamide] as the molecule, how does the Papp [1] read?
Answer: Its Papp is 14.1 ×10⁻⁶ cm/s.

Question: What about the CC50 [3] of the same molecule?
Answer: The CC50 was > 100 µM.

Question: With `O=C(NCc1cccnc1)C1CCN(C(=O)c2cc3ccccc3n2Cc2ccc(Cl)cc2)CC1` [compound 5] as the molecule, how does the “Fold loss in activity in WEEV replicon assay” value [2] read?
Answer: The value was 2 fold.

Question: Which “Reduction of viral titers compared with 3” value [7] does the source give for `O=C(NCCc1ccncc1)C1CCN(C(=O)c2cc3ccc(F)cc3n2Cc2ccc(Cl)cc2)CC1` [29h, 1-(1-(4-Chlorobenzyl)-6-fluoro-1H-indole-2-carbonyl)-N-(2-(pyridin-4-yl)ethyl)piperidine-4-carboxamide] here?
Answer: The value was “approximately ten-fold more than 3”.

Question: For `O=C(NCCCc1ccncc1)C1CCN(C(=O)c2cc3ccccc3n2Cc2ccc(Cl)cc2)CC1` [27j, 1-(1-(4-Chlorobenzyl)-1H-indole-2-carbonyl)-N-(3-(pyridin-4-yl)propyl)piperidine-4-carboxamide], which Papp [1] is on record?
Answer: The Papp was 77.6 ×10⁻⁶ cm/s.

Question: What about the “Fold decrease in potency in WEEV replicon assay” value [2] of the same molecule?
Answer: The value was 5 fold.

Question: For `C[C@@H](NC(=O)C1CCN(C(=O)c2cc3ccccc3n2Cc2ccc(Cl)cc2)CC1)c1ccncc1` [27b, (R)-1-(1-(4-Chlorobenzyl)-1H-indole-2-carbonyl)-N-(1-(pyridin-4-yl)ethyl)piperidine-4-carboxamide], which Papp [1] is on record?
Answer: The Papp was 95.5 ×10⁻⁶ cm/s.

Question: With `O=C(NCCc1ccncc1)C1CCN(C(=O)c2cc3cc(F)ccc3n2Cc2ccc(Cl)cc2)CC1` [29i, 1-(1-(4-Chlorobenzyl)-5-fluoro-1H-indole-2-carbonyl)-N-(2-(pyridin-4-yl)ethyl)piperidine-4-carboxamide] as the molecule, how does the Papp [1] read?
Answer: The Papp was 77.6 ×10⁻⁶ cm/s.

Question: Which “BBB-PAMPA (log Peff)” value [8] does the source give for `O=C(NCCc1ccncc1)C1CCN(C(=O)c2cc3ccccc3n2Cc2ccc(Cl)cc2)CC1` [27g, 1-(1-(4-Chlorobenzyl)-1H-indole-2-carbonyl)-N-(2-(pyridin-4-yl)ethyl)piperidine-4-carboxamide] here?
Answer: Its value is -4.18 ± 0.06 cm/s.

Question: And the Papp [1]?
Answer: The Papp was 66.1 ×10⁻⁶ cm/s.

Question: And the “FMV Viability (% uninfected control)” value [5]?
Answer: Its value is 71.9 ± 1.9 % uninfected control.

Question: And the “Reduction of viral titers compared with 3” value [7]?
Answer: Its value is “approximately ten-fold more than 3”.

Question: And the “Fold increase in potency in WEEV replicon assay” value [2]?
Answer: Its value is 10 fold.

Question: For `CN(Cc1ccccc1)C(=O)C1CCN(C(=O)c2cc3ccccc3n2Cc2ccc(C#N)cc2)CC1` [28c, N-Benzyl-1-(1-(4-cyanobenzyl)-1H-indole-2-carbonyl)-N-methylpiperidine-4-carboxamide], which Papp [1] is on record?
Answer: The Papp was 53.7 ×10⁻⁶ cm/s.

Question: And the CC50 [3]?
Answer: The CC50 was > 100 µM.

Question: For `O=C(NCCc1ccncc1)C1CCN(C(=O)c2nc3ccccc3n2Cc2ccc(Cl)cc2)CC1` [29c, 1-(1-(4-Chlorobenzyl)-1H-benzo[d]imidazole-2-carbonyl)-N-(2-(pyridin-4-yl)ethyl)piperidine-4-carboxamide], which Papp [1] is on record?
Answer: Its Papp is 31.6 ×10⁻⁶ cm/s.

Question: What about the “Fold increase in half-life in mouse liver microsomes” value [9] of the same molecule?
Answer: Its value is 20-35 fold.

Question: With `O=C(NCCc1ccncc1)C1CCN(C(=O)c2cc(F)cn2Cc2ccc(Cl)cc2)CC1` [29k, 1-(1-(4-Chlorobenzyl)-4-fluoro-1H-pyrrole-2-carbonyl)-N-(2-(pyridin-4-yl)ethyl)piperidine-4-carboxamide] as the molecule, how does the Papp [1] read?
Answer: The Papp was 12.6 ×10⁻⁶ cm/s.

Question: For `Cn1ccc(CNC(=O)C2CCN(C(=O)c3cc4ccccc4n3Cc3ccc(Cl)cc3)CC2)n1` [27e, 1-(1-(4-Chlorobenzyl)-1H-indole-2-carbonyl)-N-((1-methyl-1H-pyrazol-3-yl)methyl)piperidine-4-carboxamide], which CC50 [3] is on record?
Answer: Its CC50 is > 100 µM.

Question: What does the source list for `CC(NC(=O)C1CCN(C(=O)c2cc3ccccc3n2Cc2ccc(Cl)cc2)CC1)c1ccncc1` (stereo not drawn) [27a, 1-(1-(4-Chlorobenzyl)-1H-indole-2-carbonyl)-N-(1-(pyridin-4-yl)ethyl)piperidine-4-carboxamide]?
Answer: Papp [1]: 102 ×10⁻⁶ cm/s; FMV Viability (% uninfected control) [5]: 68.2 ± 2.4 % uninfected control; Reduction of viral titers compared with 3 [7]: approximately ten-fold more than 3; Fold improvement of activity in WEEV replicon assay [2]: about 3 fold

Question: For `COc1cccc(CCNC(=O)C2CCN(C(=O)c3cc4ccccc4n3Cc3ccc(Cl)cc3)CC2)c1` [27p, 1-(1-(4-Chlorobenzyl)-1H-indole-2-carbonyl)-N-(3-methoxyphenethyl)piperidine-4-carboxamide], which CC50 [3] is on record?
Answer: Its CC50 is > 100 µM.

Question: With `CN1CCC(CNC(=O)C2CCN(C(=O)c3cc4ccccc4n3Cc3ccc(Cl)cc3)CC2)CC1` [27d, 1-(1-(4-Chlorobenzyl)-1H-indole-2-carbonyl)-N-((1-methylpiperidin-4-yl)methyl)piperidine-4-carboxamide] as the molecule, how does the CC50 [3] read?
Answer: The CC50 was > 50 µM.

Question: With `O=C(NCCn1ccnc1)C1CCN(C(=O)c2cc3ccccc3n2Cc2ccc(Cl)cc2)CC1` [27o, N-(2-(1H-Imidazol-1-yl)ethyl)-1-(1-(4-chlorobenzyl)-1H-indole-2-carbonyl)piperidine-4-carboxamide] as the molecule, how does the Papp [1] read?
Answer: The Papp was 1.74 ×10⁻⁶ cm/s.

Question: Which “Fold increase in half-life in mouse liver microsomes” value [9] does the source give for `O=C(NCCc1ccncc1)C1CCN(C(=O)c2cc3ccccc3n2Cc2ccccc2)CC1` [29f, 1-(1-Benzyl-1H-indole-2-carbonyl)-N-(2-(pyridin-4-yl)ethyl)piperidine-4-carboxamide] here?
Answer: Its value is 20-35 fold.

Question: With `O=C(c1cc2ccccc2n1Cc1ccc(Cl)cc1)N1CCC(C(=O)N2CCOCC2)CC1` [27x, (1-(4-Chlorobenzyl)-1H-indol-2-yl)(4-(morpholine-4-carbonyl)piperidin-1-yl)methanone] as the molecule, how does the CC50 [3] read?
Answer: Its CC50 is > 100 µM.

Question: With `NC(=O)c1ncn([C@@H]2O[C@H](CO)[C@@H](O)[C@H]2O)n1` [Ribavirin] as the molecule, how does the “WEEV Viability (% uninfected control)” value [10] read?
Answer: The value was 35.3 ± 1.0 % uninfected control.

Question: Which CC50 [3] does the source give for `Cn1c(C(=O)N2CCC(C(=O)NCCc3ccncc3)CC2)cc2ccccc21` [29e, 1-(1-Methyl-1H-indole-2-carbonyl)-N-(2-(pyridin-4-yl)ethyl)piperidine-4-carboxamide] here?
Answer: Its CC50 is > 50 µM.

Question: For `O=C(NCc1ccncc1)C1CCN(C(=O)c2cc3ccccc3n2Cc2ccc(Cl)cc2)CC1` [compound 4], which Papp [1] is on record?
Answer: Its Papp is 69.2 ×10⁻⁶ cm/s.

Question: And the CC50 [3]?
Answer: The CC50 was > 100 µM.
